Values of other authors in patent EP2374448A1, “Oral film formulation” (Labtec GmbH, priority 2010, dated 2011).
Like-named read-outs stand apart in the source and are kept apart here.

[1] = oral administration, overall range

Row | Tmax after oral administration [1] | Compound | also measured
1 | 0.5 - 4 (preferably 1.0 - 3.0) h | CN[C@@H]1CCc2[nH]c3ccc(C(N)=O)cc3c2C1 [Frovatriptan, (+)-(R)-3-methylamino-6-carboxamido-1,2,3,4-tetrahydrocarbazole] | 
2 | 1 to 4 h | CN(C)CCc1c[nH]c2ccc(C[C@H]3COC(=O)N3)cc12 [zolmitriptan, (S)-(4)-[[3-[2-(dimethylamino)ethyl]-1H-indole-5yl]methyl]-2-oxazolidinone] | Tmax after oral administration (oral administration, during attack): 2.5 to 3 h; Tmax after oral administration (oral administration, migraine free period): 1 to 2 h
3 | 1.0 - 3 (preferably 1.5 - 2.0) h | CN1CCC[C@@H]1Cc1c[nH]c2ccc(CCS(=O)(=O)c3ccccc3)cc12 [Eletriptan, (R)-3-[(I-Methyl-2-pyrrolidinyl)methyl]-5-[2-(phenylsulfonyl)ethyl]-1H-indole] | 
4 | 0.5 - 3 (preferably 1.0 - 2.5) h | CN(C)CCc1c[nH]c2ccc(Cn3cncn3)cc12 [Rizatriptan, N,N-dimethyl-5-(IH-1,2,4-triazol-l-ylmethyl)-1H-indole-3-ethanamine] | 
5 | 0.5 - 4 (preferably 1.0 - 3.0) h | CN(C)CCc1c[nH]c2ccc(CS(=O)(=O)N3CCCC3)cc12 [Almotriptan, I-[[[3-[2-(dimethylamino)ethyl]-1H-indole-5-yl]methyl]sulfonyl]pyrrolidine] | 
6 | 1.5 - 3 (preferably 2 - 2.5) h | CNS(=O)(=O)Cc1ccc2[nH]cc(CCN(C)C)c2c1 [Sumatriptan, 3-[2-(dimethylamino)ethyl]-N-methyl-1H-indole-5-methanesulfonamide] | 
7 |  | N-methyl-3-(1-methyl-4-piperidinyl)-1H-indole-5-ethanesulfonamide [Naratriptan] | Tmax after oral administration (in vivo, po): 1.5 - 4.5 (preferably 2.0 - 4.0) h
8 |  | 4-(5-Methoxy-4-pyrimidinyl)-1-[3-[5-[[(methylamino)-sulfonyl]methyl]-1H-indole-3-yl]propyl]piperazine [Avitriptan] | Tmax after oral administration (in vivo, po): 0.25 - 1 (preferably 0.5) h
